Data from the supplement of paper PMC10132981, “Formate overflow drives toxic folate trapping in MTHFD1 inhibited cancer cells” (Nature Metabolism, 2023).
Where “and” joins values, the source holds several entries; their conditions need not be identical. Equal entries are not always repeated. ± gives the standard deviation of the averaged measurements.

How the values were obtained:
HCT116 = experiment: cell viability relative to lowest-dose well (resazurin, 96 h); higher = more viable; settings: RPMI + 10% FBS
In short: (§1)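 Viability values are expressed as percent of the lowest-dose well, using independent replicate cultures. HCT116 cells at 500 cells/well or SW620 cells at 1,000 cells/well were plated in 384-well plates in 50 µl RPMI containing 10% FBS and a metabolite supplement, then given compound dilution series dispensed from 10 mM DMSO stocks. After 96 h at 37 °C and 5% CO2, resazurin (10 µg ml^−1) conversion to resorufin was read by fluorescence at 595 nm after 5 h.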

SW620 = experiment: as above; settings: RPMI + 10% FBS
In short: as §1

O=c1[nH]cc(F)c(=O)[nH]1 [5-fluorouracil]
cell viability
Settings | 0.0001 M | 0.01 µM | 0.0278 µM | 0.0774 µM | 0.215 µM | 0.599 µM | 1.67 µM | 4.64 µM | 12.9 µM | 35.9 µM
HCT116, metabolite supplement: 50uM thymidine | 4.77 ± 0.15% | 98.1 ± 2% | 96.2 ± 1.9% | 96.3 ± 2.9% | 97.9 ± 3.3% | 91.9 ± 1.7% | 63.7 ± 4.2% | 24.6 ± 4.1% | 11.8 ± 1.5% | 6.83 ± 0.49%
HCT116, metabolite supplement: 50uM thymidine + 250uM hypoxanthine | 5.93 ± 1.4% | 106 ± 8% | 104 ± 10% | 105 ± 9.9% | 106 ± 10% | 103 ± 13% | 84 ± 6.1% | 39.7 ± 12% | 15.7 ± 3.2% | 8.5 ± 1.8%
HCT116, metabolite supplement: 250uM hypoxanthine | 4.9 ± 0.72% | 100 ± 1.4% | 96.9 ± 4.5% | 97.3 ± 2.1% | 96.8 ± 2.1% | 90.6 ± 1.6% | 78.4 ± 4.6% | 33.2 ± 7.9% | 13 ± 2.3% | 7.4 ± 1.1%
HCT116, metabolite supplement: vehicle | 4.53 ± 0.59% | 102 ± 5.7% | 102 ± 6.5% | 101 ± 5.8% | 99.6 ± 3.5% | 94.6 ± 4.9% | 65 ± 3.9% | 22.9 ± 3.1% | 11.1 ± 1.5% | 6.67 ± 0.67%
SW620, metabolite supplement: 1uM folinic acid | 6.83 ± 1.4% | 102 ± 1.5% | 100.2 ± 1% | 100 ± 1.6% | 99.7 ± 3.2% | 99 ± 3.9% | 83.6 ± 3.9% | 48.8 ± 6.7% | 26.2 ± 4.8% | 12 ± 2.2%
SW620, metabolite supplement: 50uM thymidine | 6.07% and 5.27% | 106 ± 5.3% | 99.3 ± 8.8% | 97.1 ± 7.4% | 96.7 ± 11% | 94.2 ± 11% | 74.8 ± 6.8% | 49.1 ± 8.9% | 26.6% and 22.5% | 10.4 ± 2.5%
SW620, metabolite supplement: 50uM thymidine + 1uM folinic acid | 7.17 ± 1.8% | 105 ± 11% | 106 ± 11% | 103 ± 10% | 103 ± 10% | 100 ± 9% | 83.2 ± 9.2% | 51.5 ± 7% | 26.3 ± 6.1% | 11.6 ± 2.7%
SW620, metabolite supplement: 50uM thymidine + 250uM folic acid | 6.77 ± 0.21% | – | – | – | – | 97.8 ± 1.9% | 79.1 ± 5.9% | 52.8 ± 2% | 26.3 ± 2.8% | 11.7 ± 0.68%
SW620, metabolite supplement: 250uM folic acid | 6.37 ± 0.25% | – | – | – | – | – | 83.4 ± 5.1% | 51.4 ± 4.3% | 27.3 ± 2.3% | 11.9 ± 0.55%
SW620, metabolite supplement: vehicle | 6.87% and 5.97% | 99.5 ± 2.1% | 99.5 ± 4.3% | 101 ± 2.7% | 97.4 ± 1.6% | 95.9% and 98.1% | 80.3 ± 1.1% | 53 ± 6.4% | 29.5% and 26.5% | 11.6 ± 2.5%

CN(Cc1cnc2nc(N)nc(N)c2n1)c1ccc(C(=O)N[C@@H](CCC(=O)O)C(=O)O)cc1 [methotrexate]
cell viability
Settings | 0.001 µM | 0.00278 µM | 0.00774 µM | 0.0215 µM | 0.0599 µM | 0.167 µM | 0.464 µM | 1.29 µM | 3.59 µM | 10 µM
HCT116, metabolite supplement: 50uM thymidine | 96.3 ± 2.5% | 96.8 ± 5.7% | 91.8 ± 3.4% | 36.4 ± 3.6% | 31.6 ± 4.3% | 31.9 ± 4.9% | 31.5 ± 4.5% | 31.6 ± 4.6% | 31.3 ± 3.7% | 31.5 ± 4.2%
HCT116, metabolite supplement: 50uM thymidine + 250uM hypoxanthine | 98.1 ± 1.4% | 101 ± 3.4% | 101 ± 3.3% | 104 ± 7.9% | 107 ± 4% | 109 ± 1.7% | 107 ± 3.9% | 106 ± 5.6% | 105 ± 4% | 98.1 ± 4.1%
HCT116, metabolite supplement: 250uM hypoxanthine | 97.7 ± 0.92% | 97.5 ± 2.2% | 99.5 ± 2.5% | 43.6 ± 13% | 18.9 ± 5.6% | 16.9 ± 4.3% | 16.7 ± 4.5% | 16.5 ± 4.1% | 16 ± 4% | 15.3 ± 3.3%
HCT116, metabolite supplement: vehicle | 99.2 ± 1.1% | 96.37 ± 0.23% | 66 ± 6.6% | 31.4 ± 4.3% | 19.1 ± 4.3% | 17.6 ± 3.9% | 16.8 ± 3.2% | 16.4 ± 3.4% | 16.2 ± 2.8% | 16.4 ± 2.2%
SW620, metabolite supplement: 1uM folinic acid | 101 ± 3.6% | 101 ± 5.7% | 100 ± 3.9% | 100 ± 5.1% | 96.1 ± 13% | 85.3 ± 28% | 59.2 ± 26% | 51.8 ± 22% | 48.7 ± 20% | 31.6 ± 6.5%
SW620, metabolite supplement: 50uM thymidine | 95.8 ± 1.9% | 96.1 ± 2.9% | 73.1 ± 3.8% | 55 ± 9.2% | 30.1% | 26.8% and 27.8% | 27.5 ± 2.5% | 26 ± 1.3% | 26.7 ± 2.2% | 26.6 ± 2%
SW620, metabolite supplement: 50uM thymidine + 1uM folinic acid | 102 ± 2.5% | 102 ± 4.7% | 101 ± 2.2% | 103 ± 4.9% | 102 ± 3.8% | 85.4 ± 27% | 68.2 ± 21% | 49.2 ± 6.9% | 43.4 ± 4.6% | 39.9 ± 4.6%
SW620, metabolite supplement: 50uM thymidine + 250uM folic acid | – | – | 98.6 ± 2.7% | 94.3 ± 6.2% | 79.3 ± 30% | 45.2 ± 4.3% | 37.4 ± 4.9% | 37.2 ± 4.3% | 35.5 ± 3.6% | 35.5 ± 3.7%
SW620, metabolite supplement: 250uM folic acid | – | – | 98.4 ± 2.9% | 89.1 ± 10% | 78 ± 14% | 47.8 ± 14% | 29.7 ± 0.9% | 27.5 ± 1% | 27.3 ± 0.84% | 27.3 ± 0.91%
SW620, metabolite supplement: vehicle | 96.5 ± 3.8% | 93.7 ± 5.5% | 70.1 ± 6.1% | 39.2 ± 8.2% | 29.9% and 27.9% | 32% and 27.2% | 27.4 ± 3.8% | 26.9 ± 3.9% | 25.7 ± 3.1% | 26 ± 4%
